Molecular target: T1, FXR (Homo sapiens, UniProt Q96RI1)
T1 sequence (Q96RI1 1-486): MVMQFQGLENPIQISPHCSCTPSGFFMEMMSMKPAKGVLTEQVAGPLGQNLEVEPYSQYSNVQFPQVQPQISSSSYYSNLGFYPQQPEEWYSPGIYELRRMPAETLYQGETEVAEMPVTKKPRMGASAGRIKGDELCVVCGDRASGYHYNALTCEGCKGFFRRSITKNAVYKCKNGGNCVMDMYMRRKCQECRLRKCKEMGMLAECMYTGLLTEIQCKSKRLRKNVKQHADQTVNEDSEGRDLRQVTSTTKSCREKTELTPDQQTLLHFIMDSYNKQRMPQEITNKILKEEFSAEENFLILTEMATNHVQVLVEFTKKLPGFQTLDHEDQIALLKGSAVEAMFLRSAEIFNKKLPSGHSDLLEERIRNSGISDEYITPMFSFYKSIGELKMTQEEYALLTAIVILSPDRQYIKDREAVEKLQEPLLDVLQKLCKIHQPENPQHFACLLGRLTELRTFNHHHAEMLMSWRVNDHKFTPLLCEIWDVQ
Experiment: FXR Agonist Assay (Gaussia luciferase reporter in cells)
Assay type: cell-based
Settings: 20 hours incubation at 37° C., Gaussia luciferase luminescence, normalized to DMSO control
Protocol: Starting from 3.33 mM of compound in DMSO solution, a 10-point 3-fold serial dilution was made by diluting 5 μL of compound into 10 μL of DMSO. The serially diluted compound was then diluted 1:33 into DMEM. This medium was then diluted ten-fold into the culture medium with the cells (10 μL/well). All concentration points are assayed in duplicate. Plates were incubated at 37° C. for 20 hours. After the incubation, 20 μL of culture medium were removed from each well and mixed with 50 μL of assay solution (Pierce™ Gaussia Luciferase Flash Assay Kit). The luminescence was measured immediately after addition of the Luc substrate with an Envision microplate reader. The raw data was uploaded to CDD and dose-response curves were generated using the Levenberg-Marquardt algorithm integrated into CDD. A negative control DMSO is included on each plate and used to normalize the data with the CDD built-in normalization function.

EC50 [nM]	SMILES
< 500	CC(C)NC(=O)C1=CN(C(=O)c2ccc(F)c(F)c2)CC(C)(C)c2c(C(F)(F)F)n[nH]c21 [Compound 1, (E)-6-(3,4-difluorobenzoyl)-N-isopropyl-4,4-dimethyl-3-(trifluoromethyl)-1,4,5,6-tetrahydropyrazolo[3,4-d]azepine-8-carboxamide]
< 500	CC(C)OC(=O)C1=CN(C(=O)c2ccc(OCCN3CCOCC3)cc2)CC(C)(C)c2c(C(F)(F)F)n[nH]c21 [Compound 2, (E)-isopropyl 4,4-dimethyl-6-(4-(2-morpholinoethoxy)benzoyl)-3-(trifluoromethyl)-1,4,5,6-tetrahydropyrazolo[3,4-d]azepine-8-carboxylate]
< 500	CC(C)OC(=O)C1=CN(C(=O)c2ccc(OCCN3CCOCC3)c(F)c2)CC(C)(C)c2c(C(F)(F)F)n[nH]c21 [Compound 3, (E)-isopropyl 6-(3-fluoro-4-(2-morpholinoethoxy)benzoyl)-4,4-dimethyl-3-(trifluoromethyl)-1,4,5,6-tetrahydropyrazolo[3,4-d]azepine-8-carboxylate]

Source: patent US20180346473A1, “FUSED BICYCLIC COMPOUNDS” (Akarna Therapeutics, Ltd., priority 2017, published 2018)
